Numbered stars: 1 amine (or outer) side, 2 acyl side, 3 side chain; on linkers, the order of the positions; unused ones are H or OH. Bridge positions count the residues as written; N and C are the ends. Square brackets hold non-standard residues; d marks the D form. Peptide text beside a SMILES is read from it. * marks the point of attachment. ξ: configuration not given here. Bip(4'-COOH) = N[C@@H](Cc1ccc(-c2ccc(C(=O)O)cc2)cc1)C(=O)O; Bip(4'-NHAc) = CC(=O)Nc1ccc(-c2ccc(C[C@H](N)C(=O)O)cc2)cc1; X13 = O=C(CCc1ccccc1)NCc1cccc(C[C@H](N[*:1])C(=O)[*:2])c1; Phe(3-CF3) = N[C@@H](Cc1cccc(C(F)(F)F)c1)C(=O)O; Ala(morpholin-4-yl) = N[C@@H](CN1CCOCC1)C(=O)O; Phe(4-CONH2) = NC(=O)c1ccc(C[C@H](N)C(=O)O)cc1; Phe(4-COOH) = N[C@@H](Cc1ccc(C(=O)O)cc1)C(=O)O; Bpa = N[C@@H](Cc1ccc(C(=O)c2ccccc2)cc1)C(=O)O; Bip = N[C@@H](Cc1ccc(-c2ccccc2)cc1)C(=O)O; Phe(3-F) = N[C@@H](Cc1cccc(F)c1)C(=O)O; Phe(3-Me) = Cc1cccc(C[C@H](N)C(=O)O)c1; Abu(3S-NH2) = C[C@H](N)[C@H](N)C(=O)O; Val(3-OH) = CC(C)(O)[C@H](N)C(=O)O; Malonyl = O=C(CC(=O)[*:2])[*:1]; Cha = N[C@@H](CC1CCCCC1)C(=O)O; NTA = O=C(O)CN(CC(=O)O)CC(=O)*; Thr(3ξ) = CC(O)[C@H](N)C(=O)O; Carboxymethyl = O=C(O)C*; NMeA = CN[C@@H](C)C(=O)O; Nle = CCCC[C@H](N)C(=O)O; Orn = NCCC[C@H](N)C(=O)O; Dab = NCC[C@H](N)C(=O)O; ξC = NC(CS)C(=O)O
Columns and labels:
[1] = target: T1, PE-labeled human PD-L1-Ig binding to Jurkat cell line over-expressing human PD-1 (Jurkat-PD-1) (Homo sapiens, UniProt Q15116); assay: Jurkat-PD-1 Cell Binding High-Content Screening Assay (CBA): Method 2 (presence and absence of tween-20); conditions: Jurkat-PD-1 cells, PE-labeled PD-L1-Ig 20 nM; presence or absence of tween-20 not given; head μM; read-out: CBA Method 2 μM
T1 construct: expressed in transfected cells; host or cells: Jurkat
T1 sequence (Q15116 25-288): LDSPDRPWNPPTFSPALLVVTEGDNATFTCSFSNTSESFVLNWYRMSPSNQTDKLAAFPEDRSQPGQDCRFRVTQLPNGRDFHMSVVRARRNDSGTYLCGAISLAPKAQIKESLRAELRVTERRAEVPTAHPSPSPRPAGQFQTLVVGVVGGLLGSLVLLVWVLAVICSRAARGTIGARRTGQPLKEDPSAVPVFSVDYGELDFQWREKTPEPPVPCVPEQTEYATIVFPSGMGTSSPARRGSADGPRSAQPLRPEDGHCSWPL
Procedure, shortened: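 Compounds incubated with Jurkat cells overexpressing human PD-1 for 2 h at 37° C, tested with and without tween-20 to flag aggregation. PE-labeled human PD-L1-Ig (20 nM final) added in DMEM/10% FCS; binding read by high-content imaging.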

[2] = target: T1, PE-labeled human PD-L1-Ig binding to Jurkat cell line over-expressing human PD-1 (Jurkat-PD-1); assay: Jurkat-PD-1 Cell Binding High-Content Screening Assay (CBA): Method 1; conditions: Jurkat-PD-1 cells, PE-labeled PD-L1-Ig; μM; read-out: CBA Method 1 μM
Experimental: Phycoerythrin (PE) was covalently linked to the Ig epitope tag of human PD-L1-Ig and fluorescently-labeled PD-L1-Ig was used for binding studies with a Jurkat cell line over-expressing human PD-1 (Jurkat-PD-1). Briefly, 8×10^3 Jurkat-hPD-1 cells were seeded into 384 well plates in 20 μl of DMEM supplemented with 10% fetal calf serum. 100 nl of compound was added to cells followed by incubation at 37° C. for 2 hours. Then, 5 μl of PE-labeled PD-L1-Ig (20 nM final), diluted in DMEM supplemented with 10% fetal calf serum. […] Data was collected and processed using a Cell Insight NXT High Content Imager and associated software.

SMILES	IC50 [1]	IC50 [2]
CC(C)C[C@H]1NC(=O)[C@H](C)N(C)C(=O)[C@H](CCC(N)=O)NC(=O)[C@H](Cc2ccc(-c3ccccc3)cc2)NC(=O)[C@H](Cc2ccc(C(=O)O)cc2)NC(=O)[C@H](Cc2cccc(C(F)(F)F)c2)NC(=O)[C@H](CCNC(=O)CC(=O)O)NC(=O)[C@H](Cc2ccc(C(=O)O)cc2)NC(=O)[C@H](CN2CCOCC2)NC(=O)CSC[C@@H](C(=O)N[C@@H](CCN)C(N)=O)NC(=O)[C@H](CCCN)NC(=O)[C@H](C(C)C)NC(=O)[C@H](CC2CCCCC2)NC(=O)[C@H](CCN)NC1=O [Example 5075] ({CH2CO}-[Ala(morpholin-4-yl)][Phe(4-COOH)][Dab](Malonyl)[Phe(3-CF3)][Phe(4-COOH)][Bip]Q[NMeA][dL][Dab][Cha]V[Orn]C[Dab]-NH2; thioether N-14)	0.372 µM	0.128 µM
CC(=O)Nc1ccc(-c2ccc(C[C@@H]3NC(=O)[C@H](Cc4cccc(C(F)(F)F)c4)NC(=O)[C@H](CC(=O)O)NC(=O)[C@H](Cc4ccc(-c5ccc(C(=O)O)cc5)cc4)NC(=O)[C@H](Cc4ccc(OCC(=O)O)cc4)NC(=O)CSC[C@@H](C(=O)N[C@@H](CCN)C(N)=O)NC(=O)[C@H](CCC(=O)O)NC(=O)[C@H](C(C)C)NC(=O)[C@H](CC4CCCCC4)NC(=O)[C@H](CCN)NC(=O)[C@@H](CC(C)C)NC(=O)[C@H](C)N(C)C(=O)[C@H](CCCN)NC(=O)[C@H](Cc4ccc(-c5ccccc5)cc4)NC3=O)cc2)cc1 [Example 5084] ({CH2CO}-Y(Carboxymethyl)[Bip(4'-COOH)]D[Phe(3-CF3)][Bip(4'-NHAc)][Bip][Orn][NMeA][dL][Dab][Cha]VEC[Dab]-NH2; thioether N-14)	0.0332 µM	0.0243 µM
CCCC[C@@H]1NC(=O)CSC[C@@H](C(=O)N[C@@H](CCN)C(N)=O)NC(=O)[C@H](CCCN)NC(=O)[C@H](C(C)C)NC(=O)[C@H](CC2CCCCC2)NC(=O)[C@H](CCN)NC(=O)[C@@H](CC(C)C)NC(=O)[C@H](C)N(C)C(=O)[C@H](CCCN)NC(=O)[C@H](Cc2ccc(-c3ccccc3)cc2)NC(=O)[C@H](Cc2ccc(-c3ccc(C(=O)O)cc3)cc2)NC(=O)[C@H](Cc2cccc(C(F)(F)F)c2)NC(=O)[C@H](CC(=O)O)NC(=O)[C@H](Cc2ccc(-c3ccc(C(=O)O)cc3)cc2)NC1=O [Example 5088] ({CH2CO}-[Nle][Bip(4'-COOH)]D[Phe(3-CF3)][Bip(4'-COOH)][Bip][Orn][NMeA][dL][Dab][Cha]V[Orn]C[Dab]-NH2; thioether N-14)	0.2 µM	0.09 µM
CC(=O)Nc1ccc(-c2ccc(C[C@@H]3NC(=O)[C@H](Cc4cccc(C(F)(F)F)c4)NC(=O)[C@H](CC(=O)O)NC(=O)[C@H](Cc4ccc(C(=O)O)cc4)NC(=O)[C@H]([C@H](C)N)NC(=O)CSC[C@@H](C(=O)N[C@@H](CCN)C(N)=O)NC(=O)[C@H](CCC(N)=O)NC(=O)[C@H](C(C)C)NC(=O)[C@H](CC4CCCCC4)NC(=O)[C@H](CCN)NC(=O)[C@@H](CC(C)C)NC(=O)[C@H](C)N(C)C(=O)[C@H](Cc4ccc(C(N)=O)cc4)NC(=O)[C@H](Cc4ccc(-c5ccccc5)cc4)NC3=O)cc2)cc1 [Example 5073] ({CH2CO}-[Abu(3S-NH2)][Phe(4-COOH)]D[Phe(3-CF3)][Bip(4'-NHAc)][Bip][Phe(4-CONH2)][NMeA][dL][Dab][Cha]VQC[Dab]-NH2; thioether N-14)	0.005 µM	0.0059 µM
Cc1cccc(C[C@@H]2NC(=O)[C@H](CC(=O)O)NC(=O)[C@H](Cc3ccc(OCC(=O)O)cc3)NC(=O)[C@H](Cc3cccc(CNC(=O)CCc4ccccc4)c3)NC(=O)CSC[C@@H](C(=O)N[C@@H](CCN)C(N)=O)NC(=O)[C@H](CCCN)NC(=O)[C@H](C(C)C)NC(=O)[C@H](CC3CCCCC3)NC(=O)[C@H](CCN)NC(=O)[C@@H](CC(C)C)NC(=O)[C@H](C)N(C)C(=O)[C@H](CCC(N)=O)NC(=O)[C@H](Cc3ccc(-c4ccccc4)cc3)NC(=O)[C@H](Cc3ccc(C(=O)O)cc3)NC2=O)c1 [Example 5034] ({CH2CO}-[X13]Y(Carboxymethyl)D[Phe(3-Me)][Phe(4-COOH)][Bip]Q[NMeA][dL][Dab][Cha]V[Orn]C[Dab]-NH2; thioether N-14)	0.0031 µM	0.0051 µM
CCCC[C@@H]1NC(=O)CSC[C@@H](C(=O)N[C@@H](CCN)C(N)=O)NC(=O)[C@H](CO)NC(=O)[C@H](C(C)(C)O)NC(=O)[C@H](CC2CCCCC2)NC(=O)[C@H](CCN)NC(=O)[C@@H](CC(C)C)NC(=O)[C@H](C)N(C)C(=O)[C@H](Cc2ccc(C(N)=O)cc2)NC(=O)[C@H](Cc2ccc(-c3ccccc3)cc2)NC(=O)[C@H](Cc2ccc(OCC(=O)O)cc2)NC(=O)[C@H](Cc2cccc(C)c2)NC(=O)[C@H](CC(=O)O)NC(=O)[C@H](Cc2ccc(OCC(=O)O)cc2)NC1=O [Example 5065] ({CH2CO}-[Nle]Y(Carboxymethyl)D[Phe(3-Me)]Y(Carboxymethyl)[Bip][Phe(4-CONH2)][NMeA][dL][Dab][Cha][Val(3-OH)]SC[Dab]-NH2; thioether N-14)	0.006 µM	0.0077 µM
Cc1cccc(C[C@@H]2NC(=O)[C@H](CC(=O)O)NC(=O)[C@H](Cc3ccc(OCC(=O)O)cc3)NC(=O)[C@H](CN3CCOCC3)NC(=O)CSCC(C(=O)N[C@@H](CCN)C(N)=O)NC(=O)[C@H](CCCN)NC(=O)[C@H](C(C)C)NC(=O)[C@H](CC3CCCCC3)NC(=O)[C@H](CCN)NC(=O)[C@@H](CC(C)C)NC(=O)[C@H](C)N(C)C(=O)[C@H](CCC(N)=O)NC(=O)[C@H](Cc3ccc(-c4ccccc4)cc3)NC(=O)[C@H](Cc3ccc(C(=O)c4ccccc4)cc3)NC2=O)c1 (stereo partly drawn) [Example 5031] ({CH2CO}-[Ala(morpholin-4-yl)]Y(Carboxymethyl)D[Phe(3-Me)][Bpa][Bip]Q[NMeA][dL][Dab][Cha]V[Orn][ξC][Dab]-NH2; thioether N-14)	0.0068 µM	0.0087 µM
Cc1cccc(C[C@@H]2NC(=O)[C@H](CC(=O)O)NC(=O)[C@H](Cc3ccc(C(=O)O)cc3)NC(=O)[C@H](CC(C)C)NC(=O)CSC[C@@H](C(=O)N[C@@H](CCN)C(N)=O)NC(=O)[C@H](CCCN)NC(=O)[C@H](C(C)C)NC(=O)[C@H](CC3CCCCC3)NC(=O)[C@H](CCN)NC(=O)[C@@H](CC(C)C)NC(=O)[C@H](C)N(C)C(=O)[C@H](CCC(N)=O)NC(=O)[C@H](Cc3ccc(-c4ccccc4)cc3)NC(=O)[C@H](Cc3ccc(-c4ccc(C(=O)O)cc4)cc3)NC2=O)c1 [Example 5063] ({CH2CO}-L[Phe(4-COOH)]D[Phe(3-Me)][Bip(4'-COOH)][Bip]Q[NMeA][dL][Dab][Cha]V[Orn]C[Dab]-NH2; thioether N-14)	0.0052 µM	0.0054 µM
Cc1cccc(C[C@@H]2NC(=O)[C@H](CC(=O)O)NC(=O)[C@H](Cc3ccc(OCC(=O)O)cc3)NC(=O)[C@H](C(C)O)NC(=O)CSC[C@@H](C(=O)N[C@@H](CCN)C(N)=O)NC(=O)[C@H](CO)NC(=O)[C@H](C(C)(C)O)NC(=O)[C@H](CC3CCCCC3)NC(=O)[C@H](CCN)NC(=O)[C@@H](CC(C)C)NC(=O)[C@H](C)N(C)C(=O)[C@H](Cc3ccc(C(N)=O)cc3)NC(=O)[C@H](Cc3ccc(-c4ccccc4)cc3)NC(=O)[C@H](Cc3ccc(OCC(=O)O)cc3)NC2=O)c1 (stereo partly drawn) [Example 5067] ({CH2CO}-[Thr(3ξ)]Y(Carboxymethyl)D[Phe(3-Me)]Y(Carboxymethyl)[Bip][Phe(4-CONH2)][NMeA][dL][Dab][Cha][Val(3-OH)]SC[Dab]-NH2; thioether N-14)	0.0069 µM	0.0072 µM
CC(=O)Nc1ccc(-c2ccc(C[C@@H]3NC(=O)[C@H](Cc4cccc(C)c4)NC(=O)[C@H](CC(=O)O)NC(=O)[C@H](Cc4ccc(C(=O)O)cc4)NC(=O)[C@H](CC(C)C)NC(=O)CSC[C@@H](C(=O)N[C@@H](CCN)C(N)=O)NC(=O)[C@H](CCCN)NC(=O)[C@H](C(C)C)NC(=O)[C@H](Cc4cccc(F)c4)NC(=O)[C@H](CCN)NC(=O)[C@@H](CC(C)C)NC(=O)[C@H](C)N(C)C(=O)[C@H](CCC(N)=O)NC(=O)[C@H](Cc4ccc(-c5ccccc5)cc4)NC3=O)cc2)cc1 [Example 5055] ({CH2CO}-L[Phe(4-COOH)]D[Phe(3-Me)][Bip(4'-NHAc)][Bip]Q[NMeA][dL][Dab][Phe(3-F)]V[Orn]C[Dab]-NH2; thioether N-14)	0.0321 µM	0.0385 µM
CC(C)C[C@H]1NC(=O)[C@H](C)N(C)C(=O)[C@H](CCCN)NC(=O)[C@H](Cc2ccc(-c3ccccc3)cc2)NC(=O)[C@H](Cc2ccc(-c3ccc(C(=O)O)cc3)cc2)NC(=O)[C@H](Cc2cccc(C(F)(F)F)c2)NC(=O)[C@H](CC(=O)O)NC(=O)[C@H](Cc2ccc(-c3ccc(C(=O)O)cc3)cc2)NC(=O)[C@H](Cc2ccc(OCC(=O)O)cc2)NC(=O)CSC[C@@H](C(=O)N[C@@H](CCN)C(N)=O)NC(=O)[C@H](CCC(=O)O)NC(=O)[C@H](C(C)C)NC(=O)[C@H](CC2CCCCC2)NC(=O)[C@H](CCN)NC1=O [Example 5085] ({CH2CO}-Y(Carboxymethyl)[Bip(4'-COOH)]D[Phe(3-CF3)][Bip(4'-COOH)][Bip][Orn][NMeA][dL][Dab][Cha]VEC[Dab]-NH2; thioether N-14)	0.01 µM	0.0315 µM
CC(C)C[C@H]1NC(=O)[C@H](C)N(C)C(=O)[C@H](CCC(N)=O)NC(=O)[C@H](Cc2ccc(-c3ccccc3)cc2)NC(=O)[C@H](Cc2ccc(C(=O)O)cc2)NC(=O)[C@H](Cc2cccc(C(F)(F)F)c2)NC(=O)[C@H](CCNC(=O)CN(CC(=O)O)CC(=O)O)NC(=O)[C@H](Cc2ccc(C(=O)O)cc2)NC(=O)[C@H](CN2CCOCC2)NC(=O)CSC[C@@H](C(=O)N[C@@H](CCN)C(N)=O)NC(=O)[C@H](CCCN)NC(=O)[C@H](C(C)C)NC(=O)[C@H](CC2CCCCC2)NC(=O)[C@H](CCN)NC1=O [Example 5076] ({CH2CO}-[Ala(morpholin-4-yl)][Phe(4-COOH)][Dab](NTA)[Phe(3-CF3)][Phe(4-COOH)][Bip]Q[NMeA][dL][Dab][Cha]V[Orn]C[Dab]-NH2; thioether N-14)	0.111 µM	0.463 µM

Source: US20240409585A1, “MACROCYCLIC IMMUNOMODULATORS” (priority 2021, published 2024)
